Values joined by “and” are separate entries in the source; they are usually repeats but may differ in a detail not shown here. Identical values can stand only once. “Also recorded” adds a separate entry of the source. Like-named read-outs stand apart in the source and are kept apart here.
Columns and labels:
[1] = Plasma pharmacokinetics (LC/MS/MS, noncompartmental analysis); conditions: for Dose proportionality of plasma exposure: 50–278 mg/m^2, after Day 1 intravenous infusion; for Disposition profile following completion of the intravenous infusion: schedules A and B
Experimental: (§3) Blood samples (3 mL) for PK analysis were collected during Cycle 1. On schedule A, serial samples were collected within 1 h before dosing on Day 1, immediately after completion of infusion (immediately before switching off infusion pump), and at 1, 4, and 7 h after completion of infusion. Samples were also collected on Days 2 and 3; on Days 4 and 8 (immediately before dosing and immediately after completion of infusion); on Day 11 immediately before dosing, immediately after completion of infusion, and at 4 and 7 h after completion of infusion; and on Day 15. On schedule B, blood samples were collected within 1 h before dosing on Day 1, immediately after completion of infusion (immediately before switching off infusion pump), and at 1, 2, 4, and 7 h after completion of infusion. Samples were also collected on Days 2, 3, and 4; and on Days 8 and 15 (immediately before dosing and immediately after completion of infusion). Samples were analyzed at Tandem Labs (West Trenton, NJ) for pevonedistat plasma concentrations using Good Laboratory Practice-validated liquid chromatography/tandem mass spectrometry methods. The dynamic ranges were 1–500 ng/mL for the low-range assay and 75–7500 ng/mL for the high-range assay.
(§4) The PK-evaluable population included all patients who received all protocol-defined doses in Cycle 1, had sufficient plasma concentration–time data to reliably estimate PK parameters, and had not received any excluded concomitant medications per protocol. Individual pevonedistat plasma concentration–time data were analyzed by noncompartmental methods using WinNonlin software (Version 6.2, Pharsight Corporation, Cary, NC). Plasma concentrations below the lower limit of quantification were set to zero for analysis.

[2] = test system: patients with relapsed/refractory AML or MDS; design: method as in PMID 25733005; conditions: cited from earlier work; for MTD: single-agent
[3] = test system: patients with metastatic melanoma; experiment: Adverse events (NCI CTCAE v3.0) in the phase I study, safety population; format: in vivo
Experimental: (§1) Patients received pevonedistat as 1 h intravenous infusions either on Days 1, 4, 8, and 11 (schedule A) or on Days 1, 8, and 15 (schedule B, weekly dosing) of 21-day cycles. For schedule A, intermittent dosing on Days 1, 4, 8, and 11 was chosen to match the twice-weekly schedule of the proteasome inhibitor bortezomib. The starting dose of 50 mg/m^2 was selected based on the toxicities and the MTD observed in another phase I study that investigated pevonedistat administration on Days 1–5 of 21-day cycles in patients with advanced solid tumors. It was hypothesized that intermittent dosing – extending the dose over a 2-week period – would be better tolerated than the continuous dosing schedule, which was associated with severe hepatotoxicity. Schedule B, which was added subsequently through a protocol amendment, was based on the rationale that weekly bortezomib has similar efficacy and is more convenient than the twice-weekly schedule. […] Patients could receive pevonedistat until disease progression or unacceptable drug-related toxicity, up to a maximum of 12 months.
(§2) Adverse events (AEs) were graded using the National Cancer Institute’s Common Terminology Criteria for AEs version 3.0. Response was assessed using the modified RECIST guideline (v1.1). Computed tomography or magnetic resonance imaging scans were performed at screening, at the end of Cycle 2, and then every other cycle.

[4] = test system: treatment-naïve elderly patients with AML; design: method as in earlier work; conditions: in combination with azacitidine, Days 1, 3, and 5 schedule; cited from earlier work
[5] = test system: NAE-regulated transcriptional targets (ATF3, GCLM, GSR, MAG1, NQ01, SLC7A11, SRXN1, and TXNRD1); experiment: RT-PCR of NAE-regulated transcripts in whole blood; format: in vivo, human
Experimental: Blood samples for PD analysis were collected during Cycle 1. […] On schedule B samples were collected: at screening; on Day 1 within 1 h before dosing and 1, 2, 4, and 8 h after completion of infusion; on Day 8 within 1 h before dosing; and on Day 15 within 1 h before dosing and 1, 2, and 4 h after completion of infusion. Gene expression of NAE-regulated transcriptional targets (ATF3, GCLM, GSR, MAG1, NQ01, SLC7A11, SRXN1, and TXNRD1) in whole blood was analyzed by reverse-transcription polymerase chain reaction (RT-PCR). Raw data were transformed prior to calculation of percent change and assumptions were made for missing data, as previously described. Summary statistics were generated for the percent change from baseline at each time point for each gene.

[6] = clinical; conditions: human, in vivo
Experimental: as §3, §4

[7] = test system: NAE; design: method as in PMID 21779466, PMID 15688063, PMID 19360080, PMID 23416079, PMID 24853380; conditions: NAE inhibition; cited from earlier work
[8] = test system: patients with metastatic melanoma; experiment: Antitumor activity, response by modified RECIST v1.1; format: in vivo, human
Experimental: as §2

[9] = test system: patients with solid tumors; design: method as in PMID 26423795; conditions: cited from earlier work
[10] = test system: pevonedistat–NEDD8 adduct, Cdt1 and Nrf-2; experiment: Immunohistochemistry of paired tumor biopsies; format: in vivo, human
Experimental: For patients in the MTD expansion cohort, paired tumor biopsies were obtained at screening and at 3–6 h post-dosing on Day 4 (schedule A) or Day 8 (schedule B). […] Immunohistochemical analyses were performed at Millennium Pharmaceuticals, Inc. as previously described.

[11] = test system: patients with metastatic melanoma; experiment: Dose escalation: DLTs and MTD determination (Bayesian continual reassessment method); format: in vivo; conditions: schedule A (Days 1, 4, 8, and 11 of 21-day cycles), 1 h intravenous infusion
Experimental: as §1
Dose escalation proceeded via a Bayesian continual reassessment method using 2-patient cohorts and 1.33-fold dose increments over the previous dose level. Dose escalation decisions were based on occurrence of DLTs in Cycle 1 and the predicted MTD from the continual reassessment model (Supplementary Fig. S1). […]

[12] = test system: patients with multiple myeloma or lymphoma; design: method as in PMID 26561559; conditions: cited from earlier work
[13] = human, plasma, intravenous, 157 mg/m^2
[14] = Cycle 1, Day 1, 7 h post-dose, Schedule A MTD, 209 mg/m^2 (n=11)
[15] = Cycle 1, Day 1, 8 h post-dose, Schedule B, 157 mg/m^2 (n=8)
[16] = the patient with partial response, 209 mg/m^2 schedule A
[17] = nine melanoma patients in the first-in-human phase I study

## NS(=O)(=O)OC[C@@H]1C[C@@H](n2ccc3c(N[C@H]4CCc5ccccc54)ncnc32)C[C@@H]1O [pevonedistat, Pevonedistat]
[1]
  Dose proportionality of plasma exposure: increased approximately proportionally with dose
  Disposition profile following completion of the intravenous infusion: biphasic disposition phase
[1]; listed as Pevonedistat
  Dose proportionality of plasma exposure: approximately dose-proportional
  Disposition profile following completion of the intravenous infusion: biphasic disposition profile
[1]; [13]
  AUC(0-inf): 8930 ng·h/mL
  AUC(0-t): 7250 ng·h/mL
  Cmax: 2450 ng/mL
  Tmax: 1 h
  clearance: 647 mL/min
  half-life: 10.1 h
[1]; human, plasma, iv
  half-life: ~10 h
[2]
  DLTs: multi-organ failure, reversible ALT elevation, AST/ALT elevation, cardiac failure, and acute renal failure
[2]; Days 1, 3, and 5 of 21-day cycles
  MTD: 50/59
[2]; Days 1, 4, 8, and 11 schedule
  MTD: 83 mg/m^2
[3]; Schedule A (n = 26)
  On-study death: 2 (8) n (%)
[3]; Schedule B (n = 11)
  On-study death: 1 (9) n (%)
[3]; human, in vivo
  Severity of peripheral neuropathy: mild (grade 1)
[3]; in vivo
  Patients who experienced acute organ failure toxicities: Two
[3]; schedule A, 209 mg/m^2
  Tolerability at the MTD: generally well tolerated
[3]; schedule A, 209 mg/m^2, one patient after one dose, Day 9 of Cycle 1
  Drug-related death: grade 5 acute renal failure; also recorded: died due to drug-related acute renal failure
[4]
  MTD: 20 mg/m^2
[5]; [14]
  ATF3 transcript, median % change from baseline (range): 88.6 (–38.6 to 385.0) %
  GCLM transcript, median % change from baseline (range): 105.3 (–33.0 to 234.2) %
  GSR transcript, median % change from baseline (range): 196.6 (–54.2 to 447.6) %
  MAG1 transcript, median % change from baseline (range): 99.1 (–22.4 to 236.4) %
  NQ01 transcript, median % change from baseline (range): 681.2 (–49.7 to 2740.6) %
  SLC7A11 transcript, median % change from baseline (range): 837.0 (–65.3 to 3873.9) %
  SRXN1 transcript, median % change from baseline (range): 142.0 (–50.5 to 340.0) %
  TXNRD1 transcript, median % change from baseline (range): 220.7 (–41.7 to 347.7) %
[5]; [15]
  ATF3 transcript, median % change from baseline (range): 260 (30.8 to 541.4) %
  GCLM transcript, median % change from baseline (range): 65.4 (20.0–108.0) %
  GSR transcript, median % change from baseline (range): 176.2 (93.2–216.6) %
  MAG1 transcript, median % change from baseline (range): 81.7 ( 39.0–158.2) %
  NQ01 transcript, median % change from baseline (range): 833.8 (330.6–2202.3) %
  SLC7A11 transcript, median % change from baseline (range): 727.4 (184.7 to 1660.0) %
  SRXN1 transcript, median % change from baseline (range): 81.5 (43.3 to 185.3) %
  TXNRD1 transcript, median % change from baseline (range): 156.9 (87.8 to 234.9) %
[5]; MTD on schedule A and schedule B
  Change of all eight NAE-regulated gene transcripts post-treatment: increases in NAE-regulated transcripts post-treatment; also recorded: significantly increased
[5]; data not shown
  Doses at which induction of all NAE-regulated transcriptional targets was observed: ≥ 50 mg/m^2
[6]
  Tmax: 1 h
  clearance: 635 mL/min
  half-life: 10.4 h
[7]
  Fraction of the proteins regulated by the UPS whose proteasomal degradation is prevented: ~ 20%
[8]; 31 response-evaluable patients
  Best response: progressive disease: 15 (48 %) patients
[8]; 31 response-evaluable patients, schedule A and B
  Best response: stable disease: 15 patients and 15 (48 %) patients
[8]; among the 15 patients who achieved stable disease
  Patients with stable disease lasting 6.5 months or longer: 4 patients
[8]; [16]
  Duration of response: 1.55 months
  Overall duration of stable disease or better: 4.4 months
[9]; Days 1–5 and Days 1, 3, and 5 schedules
  MTD: 50–67 mg/m^2
[9]
  DLTs: ALT elevation, AST elevation, and hyperbilirubinemia
[9]; [17]
  Duration of stable disease in another patient: 6 months
  Patients achieving a partial response: one
[10]; 3–6 h after Cycle 1, Day 4 dose, 3 patients, Schedule A MTD expansion cohort
  pevonedistat–NEDD8 adduct in post-dose tumor biopsy samples: positive
[10]; one patient with adequate biopsy tissue, schedule A MTD
  Immunohistochemical expression of Cdt1 and Nrf-2 in tumor: increased post-treatment
[11]
  Maximum tolerated dose (MTD): 209 mg/m^2
[12]; Day 1, 2, 8, and 9 schedule
  MTD: 110 mg/m^2
[12]; Days 1, 4, 8, and 11 of 21-day cycles
  MTD: 196 mg/m^2
[12]
  DLTs: febrile neutropenia, AST elevation, muscle cramps, and thrombocytopenia
